pIC50: −log10 of the molar value.
Assays:
[1] = DRUGMATRIX: beta-Lactamase enzyme inhibition (substrate: Nitrocefin); design: species or system Bacillus cereus; settings: Not Active = under 50% inhibition at 10 µM
Calcitonin receptor = target: T1, Calcitonin receptor (Homo sapiens, UniProt P30988); type: cell membranes, Membrane; settings: t47d; also: in other assays of this panel Not Active means under 50% inhibition at 10 µM
T1 sequence (P30988 whole entry): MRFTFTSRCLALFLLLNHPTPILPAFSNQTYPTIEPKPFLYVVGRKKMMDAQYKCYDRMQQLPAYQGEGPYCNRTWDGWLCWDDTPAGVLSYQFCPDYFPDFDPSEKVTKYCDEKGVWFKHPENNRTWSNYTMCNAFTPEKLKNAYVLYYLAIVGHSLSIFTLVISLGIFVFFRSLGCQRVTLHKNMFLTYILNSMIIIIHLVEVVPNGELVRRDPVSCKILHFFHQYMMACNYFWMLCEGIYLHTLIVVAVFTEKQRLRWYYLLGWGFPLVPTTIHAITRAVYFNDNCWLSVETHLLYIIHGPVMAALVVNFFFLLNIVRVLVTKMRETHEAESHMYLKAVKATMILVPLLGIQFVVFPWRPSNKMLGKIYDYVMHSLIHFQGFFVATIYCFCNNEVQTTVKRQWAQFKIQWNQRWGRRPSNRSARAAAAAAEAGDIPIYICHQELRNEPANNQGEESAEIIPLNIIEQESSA

Cannabinoid receptor 1 = Cannabinoid receptor 1 (Homo sapiens, UniProt P21554); type: cell membranes, Membrane; settings: chem-1; also: in other assays of this panel Not Active means under 50% inhibition at 10 µM
Sequence of Cannabinoid receptor 1 (P21554 whole entry): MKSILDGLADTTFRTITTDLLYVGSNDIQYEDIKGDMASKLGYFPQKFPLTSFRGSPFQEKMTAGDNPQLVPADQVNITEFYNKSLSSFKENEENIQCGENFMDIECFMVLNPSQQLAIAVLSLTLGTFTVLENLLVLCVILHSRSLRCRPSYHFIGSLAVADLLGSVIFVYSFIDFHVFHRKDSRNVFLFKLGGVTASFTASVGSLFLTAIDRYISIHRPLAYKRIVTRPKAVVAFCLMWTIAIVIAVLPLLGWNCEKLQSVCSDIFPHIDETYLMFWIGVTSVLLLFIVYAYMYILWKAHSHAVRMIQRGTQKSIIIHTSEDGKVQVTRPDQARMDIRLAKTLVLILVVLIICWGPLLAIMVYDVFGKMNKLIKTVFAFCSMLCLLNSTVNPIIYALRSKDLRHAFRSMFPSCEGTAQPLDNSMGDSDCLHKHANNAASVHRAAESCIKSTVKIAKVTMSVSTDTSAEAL

[2] = target: T2, C-X-C chemokine receptor type 1 (Homo sapiens, UniProt P25024); also: in other assays of this panel Not Active means under 50% inhibition at 10 µM
T2 sequence (P25024 whole entry): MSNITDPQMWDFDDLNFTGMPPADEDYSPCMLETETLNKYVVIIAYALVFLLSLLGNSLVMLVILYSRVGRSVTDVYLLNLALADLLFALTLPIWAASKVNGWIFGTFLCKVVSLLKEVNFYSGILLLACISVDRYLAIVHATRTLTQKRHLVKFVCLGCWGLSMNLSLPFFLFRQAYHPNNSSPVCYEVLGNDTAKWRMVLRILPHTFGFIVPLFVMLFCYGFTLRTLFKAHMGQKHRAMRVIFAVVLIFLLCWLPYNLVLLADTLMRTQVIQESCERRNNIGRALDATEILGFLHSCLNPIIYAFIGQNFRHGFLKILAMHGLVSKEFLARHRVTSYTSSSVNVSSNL

[3] = DRUGMATRIX: Glutamate, Kainate radioligand binding (ligand: [3H] Kainic acid); type: cell membranes, Rattus norvegicus, Wistar, Brain, Membrane; settings: Not Active = under 50% inhibition at 10 µM
[4] = DRUGMATRIX: Phosphodiesterase PDE3 enzyme inhibition (substrate: [3H]cAMP + cAMP); type: tissue-based, Homo sapiens; settings: platelet, Not Active = under 50% inhibition at 10 µM; for pIC50: read-out: IC50
Interstitial collagenase = target: T3, Interstitial collagenase (Homo sapiens, UniProt P03956); type: tissue-based, Rheumatoid synovial fibroblasts;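 also: MMP-1 enzyme inhibition assay using a peptide substrate; in other assays of this panel Not Active means under 50% inhibition at 10 µM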
T3 sequence (P03956 whole entry): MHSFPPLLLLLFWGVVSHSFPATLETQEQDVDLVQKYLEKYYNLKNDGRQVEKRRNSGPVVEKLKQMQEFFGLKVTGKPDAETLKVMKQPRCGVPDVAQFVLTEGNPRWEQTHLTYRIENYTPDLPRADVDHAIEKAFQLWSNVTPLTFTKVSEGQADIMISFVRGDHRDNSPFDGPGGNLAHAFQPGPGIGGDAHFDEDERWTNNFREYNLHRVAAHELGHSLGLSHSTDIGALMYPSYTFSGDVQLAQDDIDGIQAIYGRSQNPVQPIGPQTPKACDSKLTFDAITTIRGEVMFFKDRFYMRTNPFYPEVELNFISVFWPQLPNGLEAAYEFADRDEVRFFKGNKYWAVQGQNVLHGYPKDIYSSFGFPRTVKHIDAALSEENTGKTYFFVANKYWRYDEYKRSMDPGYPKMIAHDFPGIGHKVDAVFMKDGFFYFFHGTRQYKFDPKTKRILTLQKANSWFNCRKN

CC[C@]1(O)CC[C@H]2[C@@H]3CCC4=CCCC[C@@H]4[C@H]3CC[C@@]21C
Not Active: IC50 [1] | Ki [1] | IC50 (Calcitonin receptor) | IC50 (Cannabinoid receptor 1) | IC50 [2] | IC50 [3] | Ki [3] | IC50 [4] | Ki [4] | IC50 (Interstitial collagenase)

N[C@@H](Cc1ccc(F)cc1)C(=O)O
Not Active: IC50 [1] | Ki [1] | IC50 (Calcitonin receptor) | IC50 (Cannabinoid receptor 1) | IC50 [2] | IC50 [3] | Ki [3] | IC50 [4] | Ki [4] | IC50 (Interstitial collagenase)

CCOC(=O)[C@H](CCc1ccccc1)N[C@@H](C)C(=O)N1CCC[C@H]1C(=O)O
Not Active: IC50 [1] | Ki [1] | IC50 (Calcitonin receptor) | IC50 (Cannabinoid receptor 1) | IC50 [2] | IC50 [3] | Ki [3] | IC50 [4] | Ki [4] | IC50 (Interstitial collagenase)

C=C1/C(=C\C=C2/CCC[C@]3(C)[C@@H]([C@H](C)CCCC(C)C)CC[C@@H]23)C[C@@H](O)C[C@@H]1O [ALFACALCIDOL]
Not Active: IC50 [1] | Ki [1] | IC50 (Calcitonin receptor) | IC50 (Cannabinoid receptor 1) | IC50 [2] | IC50 [3] | Ki [3] | IC50 [4] | Ki [4] | IC50 (Interstitial collagenase)

C[C@@H]1CC[C@H]2[C@@H](C)C(=O)O[C@@H]3O[C@@]4(C)CC[C@@H]1[C@]32OO4 [ARTEMISININ]
Not Active: IC50 [1] | Ki [1] | IC50 (Calcitonin receptor) | IC50 (Cannabinoid receptor 1) | IC50 [2] | IC50 [3] | Ki [3] | IC50 [4] | Ki [4] | IC50 (Interstitial collagenase)

[N-]=[N+]=CC(=O)OC[C@H](N)C(=O)O [AZASERINE]
Not Active: IC50 [1] | Ki [1] | IC50 (Calcitonin receptor) | IC50 (Cannabinoid receptor 1) | IC50 [2] | IC50 [3] | Ki [3] | IC50 [4] | Ki [4] | IC50 (Interstitial collagenase)

CC(C)C[C@H]1C(=O)N2CCC[C@H]2[C@]2(O)O[C@](NC(=O)[C@@H]3C=C4c5cccc6[nH]c(Br)c(c56)C[C@H]4N(C)C3)(C(C)C)C(=O)N12 [BROMOCRIPTINE]
Not Active: IC50 [1] | Ki [1] | IC50 (Calcitonin receptor) | IC50 (Cannabinoid receptor 1) | IC50 [2] | IC50 [3] | Ki [3] | IC50 [4] | Ki [4] | IC50 (Interstitial collagenase)

O=C(/C=C/c1ccc(O)c(O)c1)OCCc1ccccc1 [CAFFEIC ACID PHENETHYL ESTER]
Not Active: IC50 [1] | Ki [1] | IC50 (Calcitonin receptor) | IC50 (Cannabinoid receptor 1) | IC50 [2] | IC50 [3] | Ki [3] | IC50 [4] | Ki [4] | IC50 (Interstitial collagenase)

Oc1ccccc1O [CATECHOL]
Not Active: IC50 [1] | Ki [1] | IC50 (Calcitonin receptor) | IC50 (Cannabinoid receptor 1) | IC50 [2] | IC50 [3] | Ki [3] | IC50 [4] | Ki [4] | IC50 (Interstitial collagenase)

CN(C(=O)CCCOc1ccc2[nH]c(=O)ccc2c1)C1CCCCC1 [CILOSTAMIDE]
7.26: pIC50 [4]
Not Active: IC50 [1] | Ki [1] | IC50 (Calcitonin receptor) | IC50 (Cannabinoid receptor 1) | IC50 [2] | IC50 [3] | Ki [3] | IC50 (Interstitial collagenase)

Nc1nc(Cl)nc2c1ncn2[C@H]1C[C@H](O)[C@@H](CO)O1 [CLADRIBINE]
Not Active: IC50 [1] | Ki [1] | IC50 (Calcitonin receptor) | IC50 (Cannabinoid receptor 1) | IC50 [2] | IC50 [3] | Ki [3] | IC50 [4] | Ki [4] | IC50 (Interstitial collagenase)

CC(=O)O[C@]1(C(C)=O)CC[C@H]2[C@@H]3C=C(Cl)C4=CC(=O)[C@@H]5C[C@@H]5[C@]4(C)[C@H]3CC[C@@]21C [CYPROTERONE ACETATE]
Not Active: IC50 [1] | Ki [1] | IC50 (Calcitonin receptor) | IC50 (Cannabinoid receptor 1) | IC50 [2] | IC50 [3] | Ki [3] | IC50 [4] | Ki [4] | IC50 (Interstitial collagenase)

Nc1nc(N)nc(NC2CC2)n1 [CYROMAZINE]
Not Active: IC50 [1] | Ki [1] | IC50 (Calcitonin receptor) | IC50 (Cannabinoid receptor 1) | IC50 [2] | IC50 [3] | Ki [3] | IC50 [4] | Ki [4] | IC50 (Interstitial collagenase)

C#C[C@]1(O)CC[C@H]2[C@@H]3CCC4=Cc5oncc5C[C@]4(C)[C@H]3CC[C@@]21C [DANAZOL]
5.60: pIC50 [4]
Not Active: IC50 [1] | Ki [1] | IC50 (Calcitonin receptor) | IC50 (Cannabinoid receptor 1) | IC50 [2] | IC50 [3] | Ki [3] | IC50 (Interstitial collagenase)

CN1C(=O)CN=C(c2ccccc2)c2cc(Cl)ccc21 [DIAZEPAM]
Not Active: IC50 [1] | Ki [1] | IC50 (Calcitonin receptor) | IC50 (Cannabinoid receptor 1) | IC50 [2] | IC50 [3] | Ki [3] | IC50 [4] | Ki [4] | IC50 (Interstitial collagenase)

Cc1c(N(C)CS(=O)(=O)[O-])c(=O)n(-c2ccccc2)n1C.[Na+] [DIPYRONE SODIUM]
Not Active: IC50 [1] | Ki [1] | IC50 (Calcitonin receptor) | IC50 (Cannabinoid receptor 1) | IC50 [2] | IC50 [3] | Ki [3] | IC50 [4] | Ki [4] | IC50 (Interstitial collagenase)

C#C[C@]1(O)CC[C@H]2[C@@H]3CCc4cc(O)ccc4[C@H]3CC[C@@]21C [ETHINYL ESTRADIOL]
Not Active: IC50 [1] | Ki [1] | IC50 (Calcitonin receptor) | IC50 (Cannabinoid receptor 1) | IC50 [2] | IC50 [3] | Ki [3] | IC50 [4] | Ki [4] | IC50 (Interstitial collagenase)

COc1ccccc1OCC(O)CO (stereo not drawn) [GUAIFENESIN]
Not Active: IC50 [1] | Ki [1] | IC50 (Calcitonin receptor) | IC50 (Cannabinoid receptor 1) | IC50 [2] | IC50 [3] | Ki [3] | IC50 [4] | Ki [4] | IC50 (Interstitial collagenase)

C[C@]12CCC(=O)C=C1CC[C@@H]1[C@@H]2[C@@H](O)C[C@@]2(C)[C@H]1CC[C@]2(O)C(=O)CO [HYDROCORTISONE]
Not Active: IC50 [1] | Ki [1] | IC50 (Calcitonin receptor) | IC50 (Cannabinoid receptor 1) | IC50 [2] | IC50 [3] | Ki [3] | IC50 [4] | Ki [4] | IC50 (Interstitial collagenase)

Cc1cccc(Nc2ccccc2C(=O)O)c1C [MEFENAMIC ACID]
Not Active: IC50 [1] | Ki [1] | IC50 (Calcitonin receptor) | IC50 (Cannabinoid receptor 1) | IC50 [2] | IC50 [3] | Ki [3] | IC50 [4] | Ki [4] | IC50 (Interstitial collagenase)

COc1ccc2cc(CCC(C)=O)ccc2c1 [NABUMETONE]
Not Active: IC50 [1] | Ki [1] | IC50 (Calcitonin receptor) | IC50 (Cannabinoid receptor 1) | IC50 [2] | IC50 [3] | Ki [3] | IC50 [4] | Ki [4] | IC50 (Interstitial collagenase)

O=C(O)c1cccnc1 [NIACIN]
Not Active: IC50 [1] | Ki [1] | IC50 (Calcitonin receptor) | IC50 (Cannabinoid receptor 1) | IC50 [2] | IC50 [3] | Ki [3] | IC50 [4] | Ki [4] | IC50 (Interstitial collagenase)
